Test results from patent publication US11123337B2, “4-methylsulfonyl-substituted piperidine urea compounds” (MYOKARDIA, INC., priority 2015, dated 2021).

biological target: bovine cardiac myosin (Bos taurus, UniProt Q9BE39); assay: Myosin activation assay (PK/LDH-coupled ATPase, bovine cardiac myofibrils); type: biochemical; details: AC20 = concentration at which total response is increased by twenty percent
Procedure: Small molecule agents were assessed for their ability to activate the enzymatic activity of bovine cardiac myosin using a biochemical assay that couples the release of ADP (adenosine diphosphate) from cardiac myosin to an enzymatic coupling system consisting of pyruvate kinase and lactate dehydrogenase (PK/LDH) and monitoring the absorbance decrease of NADH (at 340 nm) as a function of time. PK converts ADP to ATP (adenosine triphosphate) by converting PEP (phosphoenolpyruvate) to pyruvate. Pyruvate is then converted to lactate by LDH by converting NADH (nicotinamide adenine dinucleotide) to NAD (oxidized nicotinamide adenine dinucleotide). The source of cardiac myosin was from bovine heart in the form of skinned myofibrils. Prior to testing small molecule agents, the bovine myofibrils were assessed for their calcium responsiveness and the calcium concentration that achieves either a 50% (pCa50 or pCa=˜6) or <5% (pCa=10) activation of the myofibril system was chosen as the final condition for assessing the activation activity of the small molecule agents. All enzymatic activity was measured in a buffered solution containing 12 mM PIPES (piperazine-N,N′-bis(2-ethanesulfonic acid), 2 mM magnesium chloride at pH 6.8 (PM12 buffer). Final assay conditions were 1 mg/mL of bovine cardiac myofibrils, 0.4 mM PK/LDH, 50 uM ATP, 0.1 mg/mL BSA (bovine serum albumin), 10 ppm antifoam, 2 mM BME, 0.5 mM NADH, 1.5 mM PEP at the desired free calcium concentration required to achieve either 50% or <5% activation of the myofibrils.
A dilution series of compound was created in DMSO such that the final desired concentration of compound would be achieved in a volume of […] with a fixed DMSO concentration of 3.3% (v/v). Typically a 1 μL of the dilution series was added to a 384 well plate to achieve a 10 point dose response. Following the addition of 14 μL of a solution containing bovine cardiac myofibrils, PK/LDH and a solution of calcium (that achieved the desired activation), the enzymatic reaction was started with the addition of 15 μL of a solution containing ATP, PEP and NADH. The reaction progress was followed in a PerkinElmer Envision plate reader at ambient temperature using clear bottom plates. The plate reader was configured to read absorbance at 340 nm in kinetics mode for 15 minutes. Data were recorded as the slope of the absorbance response to time. The slopes of the absorbance response as a function of time were normalized to slopes on the plate containing DMSO. This normalized rate was then plotted as a function of small molecule concentration and the data was fitted to a four-parameter fit using EXCEL XLfit. The concentration at which the total response is increased by twenty or fifty percent is reported as AC20 or AC50.

Sequence of bovine cardiac myosin (Q9BE39 whole entry): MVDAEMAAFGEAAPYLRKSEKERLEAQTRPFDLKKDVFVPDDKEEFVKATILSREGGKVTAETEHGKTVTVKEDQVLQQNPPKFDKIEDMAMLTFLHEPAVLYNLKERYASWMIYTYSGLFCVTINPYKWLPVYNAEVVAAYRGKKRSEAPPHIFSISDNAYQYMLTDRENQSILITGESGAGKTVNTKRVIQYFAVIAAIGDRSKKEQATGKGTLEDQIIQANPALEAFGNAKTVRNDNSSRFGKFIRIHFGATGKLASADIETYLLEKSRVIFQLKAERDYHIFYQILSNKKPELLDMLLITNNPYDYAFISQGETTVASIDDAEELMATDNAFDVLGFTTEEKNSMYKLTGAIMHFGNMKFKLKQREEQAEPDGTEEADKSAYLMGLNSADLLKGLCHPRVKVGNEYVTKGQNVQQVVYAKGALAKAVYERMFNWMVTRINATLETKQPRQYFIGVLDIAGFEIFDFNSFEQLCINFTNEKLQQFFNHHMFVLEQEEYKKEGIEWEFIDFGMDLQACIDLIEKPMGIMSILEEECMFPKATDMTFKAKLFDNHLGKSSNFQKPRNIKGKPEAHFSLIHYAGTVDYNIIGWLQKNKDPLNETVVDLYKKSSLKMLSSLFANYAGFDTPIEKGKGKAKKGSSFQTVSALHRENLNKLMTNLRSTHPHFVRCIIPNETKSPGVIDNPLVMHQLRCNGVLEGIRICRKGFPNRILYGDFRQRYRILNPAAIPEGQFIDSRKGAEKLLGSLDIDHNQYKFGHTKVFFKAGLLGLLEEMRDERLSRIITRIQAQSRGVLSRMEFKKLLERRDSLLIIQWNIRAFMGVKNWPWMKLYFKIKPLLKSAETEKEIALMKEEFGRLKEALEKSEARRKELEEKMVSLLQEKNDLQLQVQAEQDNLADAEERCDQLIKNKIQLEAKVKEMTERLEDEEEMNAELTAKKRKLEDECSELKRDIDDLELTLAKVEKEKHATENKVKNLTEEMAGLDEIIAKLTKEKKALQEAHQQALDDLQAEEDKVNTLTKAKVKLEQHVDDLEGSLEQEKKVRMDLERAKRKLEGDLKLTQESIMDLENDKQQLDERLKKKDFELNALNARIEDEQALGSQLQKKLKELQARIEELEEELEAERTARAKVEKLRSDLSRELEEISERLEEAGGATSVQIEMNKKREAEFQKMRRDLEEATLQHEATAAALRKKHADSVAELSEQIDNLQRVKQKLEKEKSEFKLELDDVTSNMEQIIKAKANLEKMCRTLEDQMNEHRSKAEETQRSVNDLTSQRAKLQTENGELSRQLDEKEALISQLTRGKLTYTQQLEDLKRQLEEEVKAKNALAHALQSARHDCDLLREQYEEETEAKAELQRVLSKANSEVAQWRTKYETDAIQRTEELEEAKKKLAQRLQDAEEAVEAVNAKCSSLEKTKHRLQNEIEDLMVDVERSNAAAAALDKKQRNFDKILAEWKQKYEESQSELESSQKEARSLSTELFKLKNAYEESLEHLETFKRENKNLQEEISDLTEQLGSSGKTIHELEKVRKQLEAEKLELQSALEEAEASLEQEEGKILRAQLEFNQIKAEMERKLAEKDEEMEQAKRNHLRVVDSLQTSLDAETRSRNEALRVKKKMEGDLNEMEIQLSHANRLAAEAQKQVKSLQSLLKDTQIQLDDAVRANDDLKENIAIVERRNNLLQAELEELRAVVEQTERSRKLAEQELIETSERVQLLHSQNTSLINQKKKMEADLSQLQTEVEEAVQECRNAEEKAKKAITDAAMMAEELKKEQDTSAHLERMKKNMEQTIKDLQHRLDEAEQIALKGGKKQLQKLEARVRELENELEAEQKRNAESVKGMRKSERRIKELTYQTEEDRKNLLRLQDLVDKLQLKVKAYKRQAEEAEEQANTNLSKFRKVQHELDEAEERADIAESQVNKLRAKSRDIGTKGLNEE
Sequence of bovine cardiac myosin (P85100 whole entry partner): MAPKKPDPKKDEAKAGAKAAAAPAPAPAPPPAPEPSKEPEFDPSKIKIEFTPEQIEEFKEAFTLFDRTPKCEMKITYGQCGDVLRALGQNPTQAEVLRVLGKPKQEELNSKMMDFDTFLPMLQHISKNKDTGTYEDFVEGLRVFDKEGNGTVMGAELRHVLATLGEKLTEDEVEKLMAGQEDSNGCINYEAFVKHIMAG
Sequence of bovine cardiac myosin (Q3SZE5 whole entry partner): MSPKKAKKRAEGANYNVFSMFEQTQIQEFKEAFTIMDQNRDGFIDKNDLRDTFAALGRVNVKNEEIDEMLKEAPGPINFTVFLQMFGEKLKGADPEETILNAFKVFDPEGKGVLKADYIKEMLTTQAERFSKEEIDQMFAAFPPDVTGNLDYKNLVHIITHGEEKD

Compound	Myosin Activation (AC20)
Cc1ccccc1S(=O)(=O)CC1CCN(C(=O)Nc2ccncc2)CC1 [Compound 39, N-(pyridin-4-yl)-4-((o-tolylsulfonyl)methyl)piperidine-1-carboxamide]	+ (+ represents myosin activation value AC20 > 5 μM)
CC(C)(C1CCN(C(=O)Nc2cnns2)CC1)S(=O)(=O)c1cccc(F)c1 [Compound 211, 4-(2-((3-fluorophenyl)sulfonyl)propan-2-yl)-N-(1,2,3-thiadiazol-5-yl)piperidine-1-carboxamide]	+++ (+++ represents myosin activation value AC20 < 2 μM)
Cn1nc(C(F)(F)F)cc1S(=O)(=O)C(C)(F)C1CCN(C(=O)Nc2ccc(F)nc2)CC1 (stereo not drawn) [Compound 252, 4-(1-fluoro-1-((1-methyl-3-(trifluoromethyl)-1H-pyrazol-5-yl)sulfonyl)ethyl)-N-(6-fluoropyridin-3-yl)piperidine-1-carboxamide]	++ (++ represents myosin activation value AC20 from 2 μM-5 μM)
O=C(Nc1ccnnc1)N1CCC(C2(S(=O)(=O)c3ccc(C(F)(F)F)cc3)CCC2)CC1 [Compound 165, N-(pyridazin-4-yl)-4-(1-((4-(trifluoromethyl)phenyl)sulfonyl)cyclobutyl)piperidine-1-carboxamide]	+++ (+++ represents myosin activation value AC20 < 2 μM)
C[C@@](F)(C1CCN(C(=O)Nc2ccc(C#N)nc2)CC1)S(=O)(=O)c1cccc(F)c1 [Compound 291, (S)-N-(6-cyanopyridin-3-yl)-4-(1-fluoro-1-((3-fluorophenyl)sulfonyl)ethyl)piperidine-1-carboxamide]	+ (+ represents myosin activation value AC20 > 5 μM)
Cn1nc(C(F)F)cc1S(=O)(=O)C(C)(C)C1CCN(C(=O)Nc2ccnnc2)CC1 [Compound 122, 4-(2-((3-(difluoromethyl)-1-methyl-1H-pyrazol-5-yl)sulfonyl)propan-2-yl)-N-(pyridazin-4-yl)piperidine-1-carboxamide]	+++ (+++ represents myosin activation value AC20 < 2 μM)
Cn1cc(S(=O)(=O)[C@@](C)(F)C2CCN(C(=O)Nc3ccc(C#N)nc3)CC2)c(C(F)F)n1 [Compound 299, (R)-N-(6-cyanopyridin-3-yl)-4-(1-((3-(difluoromethyl)-1-methyl-1H-pyrazol-4-yl)sulfonyl)-1-fluoroethyl)piperidine-1-carboxamide]	+++ (+++ represents myosin activation value AC20 < 2 μM)
CC(C)(C1CCN(C(=O)Nc2ccns2)CC1)S(=O)(=O)c1ccccc1Cl [Compound 208, 4-(2-((2-chlorophenyl)sulfonyl)propan-2-yl)-N-(isothiazol-5-yl)piperidine-1-carboxamide]	++ (++ represents myosin activation value AC20 from 2 μM-5 μM)
C[C@@](F)(C1CCN(C(=O)Nc2ccnnc2)CC1)S(=O)(=O)c1cccc(F)c1 [Compound 279, (S)-4-(1-fluoro-1-((3-fluorophenyl)sulfonyl)ethyl)-N-(pyridazin-4-yl)piperidine-1-carboxamide]	+ (+ represents myosin activation value AC20 > 5 μM)
CC(C)(C1CCN(C(=O)Nc2cncc(F)c2)CC1)S(=O)(=O)c1cccc(F)c1 [Compound 119, 4-(2-((3-fluorophenyl)sulfonyl)propan-2-yl)-N-(5-fluoropyridin-3-yl)piperidine-1-carboxamide]	++ (++ represents myosin activation value AC20 from 2 μM-5 μM)
Cc1cc(S(=O)(=O)C(F)(F)C2CCN(C(=O)Nc3ccnnc3)CC2)n(C(C)C)n1 [Compound 87, 4-(difluoro((1-isopropyl-3-methyl-1H-pyrazol-5-yl)sulfonyl)methyl)-N-(pyridazin-4-yl)piperidine-1-carboxamide]	+ (+ represents myosin activation value AC20 > 5 μM)
Cn1cc(S(=O)(=O)[C@@](C)(F)C2CCN(C(=O)Nc3ccc(C(F)(F)F)nc3)CC2)c(C(F)F)n1 [Compound 261, (R)-4-(1-((3-(difluoromethyl)-1-methyl-1H-pyrazol-4-yl)sulfonyl)-1-fluoroethyl)-N-(6-(trifluoromethyl)pyridin-3-yl)piperidine-1-carboxamide]	+ (+ represents myosin activation value AC20 > 5 μM)
Cc1ccc(NC(=O)N2CCC(C(C)(C)S(=O)(=O)c3cccc(F)c3)CC2)nn1 [Compound 121, 4-(2-((3-fluorophenyl)sulfonyl)propan-2-yl)-N-(6-methylpyridazin-3-yl)piperidine-1-carboxamide]	+ (+ represents myosin activation value AC20 > 5 μM)
O=C(Nc1ccnnc1)N1CCC(C(F)(F)S(=O)(=O)c2ccc(OC(F)(F)F)cc2)CC1 [Compound 48, 4-(difluoro((4-(trifluoromethoxy)phenyl)sulfonyl)methyl)-N-(pyridazin-4-yl)piperidine-1-carboxamide]	++ (++ represents myosin activation value AC20 from 2 μM-5 μM)
O=C(Nc1ccnnc1)N1CCC(C(F)(F)S(=O)(=O)c2ccccc2-n2cncn2)CC1 [Compound 86, 4-(((2-(1H-1,2,4-triazol-1-yl)phenyl)sulfonyl)difluoromethyl)-N-(pyridazin-4-yl)piperidine-1-carboxamide]	++ (++ represents myosin activation value AC20 from 2 μM-5 μM)
Cn1nccc1S(=O)(=O)C(C)(C)C1CCN(C(=O)Nc2ccnnc2)CC1 [Compound 192, 4-(2-((1-methyl-1H-pyrazol-5-yl)sulfonyl)propan-2-yl)-N-(pyridazin-4-yl)piperidine-1-carboxamide]	+++ (+++ represents myosin activation value AC20 < 2 μM)
Cn1cc(S(=O)(=O)C(C)(C)C2CCN(C(=O)Nc3ccc(F)nc3)CC2)c(C(F)F)n1 [Compound 117, 4-(2-((3-(difluoromethyl)-1-methyl-1H-pyrazol-4-yl)sulfonyl)propan-2-yl)-N-(6-fluoropyridin-3-yl)piperidine-1-carboxamide]	++ (++ represents myosin activation value AC20 from 2 μM-5 μM)
CC(C)(C1CCN(C(=O)Nc2ccc(F)nc2)CC1)S(=O)(=O)c1cccc(F)c1 [Compound 152, 4-(2-((3-fluorophenyl)sulfonyl)propan-2-yl)-N-(6-fluoropyridin-3-yl)piperidine-1-carboxamide]	++ (++ represents myosin activation value AC20 from 2 μM-5 μM)
N#Cc1ccc(S(=O)(=O)C2(C3CCN(C(=O)Nc4ccnnc4)CC3)CCC2)cc1 [Compound 164, 4-(1-((4-cyanophenyl)sulfonyl)cyclobutyl)-N-(pyridazin-4-yl)piperidine-1-carboxamide]	+++ (+++ represents myosin activation value AC20 < 2 μM)
Cn1nccc1S(=O)(=O)C(C)(F)C1CCN(C(=O)Nc2cnns2)CC1 (stereo not drawn) [Compound 267, 4-(1-fluoro-1-((1-methyl-1H-pyrazol-5-yl)sulfonyl)ethyl)-N-(1,2,3-thiadiazol-5-yl)piperidine-1-carboxamide]	+++ (+++ represents myosin activation value AC20 < 2 μM)
CN(C)c1ncccc1S(=O)(=O)C(F)(F)C1CCN(C(=O)Nc2ccnnc2)CC1 [Compound 96, 4-(((2-(dimethylamino)pyridin-3-yl)sulfonyl)difluoromethyl)-N-(pyridazin-4-yl)piperidine-1-carboxamide]	+ (+ represents myosin activation value AC20 > 5 μM)
Cc1cc(NC(=O)N2CCC([C@](C)(F)S(=O)(=O)c3cc(C(F)(F)F)nn3C)CC2)ccn1 [Compound 232, (R)-4-(1-fluoro-1-((1-methyl-3-(trifluoromethyl)-1H-pyrazol-5-yl)sulfonyl)ethyl)-N-(2-methylpyridin-4-yl)piperidine-1-carboxamide]	+++ (+++ represents myosin activation value AC20 < 2 μM)
Cn1cc(S(=O)(=O)[C@@](C)(F)C2CCN(C(=O)Nc3ccnc(F)c3)CC2)c(C(F)F)n1 [Compound 297, (R)-4-(1-((3-(difluoromethyl)-1-methyl-1H-pyrazol-4-yl)sulfonyl)-1-fluoroethyl)-N-(2-fluoropyridin-4-yl)piperidine-1-carboxamide]	+++ (+++ represents myosin activation value AC20 < 2 μM)
Cc1ccc(NC(=O)N2CCC(C(C)(F)S(=O)(=O)c3cc(C(F)(F)F)nn3C)CC2)cn1 (stereo not drawn) [Compound 250, 4-(1-fluoro-1-((1-methyl-3-(trifluoromethyl)-1H-pyrazol-5-yl)sulfonyl)ethyl)-N-(6-methylpyridin-3-yl)piperidine-1-carboxamide]	++ (++ represents myosin activation value AC20 from 2 μM-5 μM)
